Reference: patent US12071404B2, “Aza (indole)-, benzothiophene-, and benzofuran-3-sulfonamides” (UCB Pharma GmbH, priority 2016, dated 2024)

Legend:
[1] = target: T1, GPR17 (Homo sapiens, UniProt Q13304); assay: cAMP accumulation functional assay (HTRF, Schild analysis); assay type: cell-based; set-up: host or cells: Flp-In T-REx CHO; conditions: CHO hGPR17 cells, Schild analysis vs MDL29,951, 5 μM forskolin, read-out: cAMP assay pA2 (converted)
Method in brief: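 CHO Flp-In T-REx cells with doxycycline-induced human GPR17 were preincubated 30 min at room temperature in HBSS-HEPES pH 7.4 with antagonist. cAMP was then measured by HTRF after 60 min. MDL29,951 pEC50 shifts gave dose ratios, and Schild analysis gave pA2.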

[2] = target: T1, GPR17; assay: Calcium mobilization functional assay (GPR17 Ca2+ assay); assay type: cell-based; set-up: host or cells: Flp-In T-REx CHO; conditions: CHO hGPR17 cells, inhibition of 50 nM MDL29,951, Calcium 5 dye, FLIPR; read-out: Ca2+ assay pIC50 (converted)
Method in brief: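 Flp-In T-REx CHO cells stably expressing human GPR17, doxycycline-induced (1 μg/mL, 16-20 h), loaded 60 min with Calcium 5 dye. Inhibition by varying test-compound concentrations of the 50 nM MDL29,951 agonist response was read by fluorescence over time at room temperature. pIC50 came from 4-parameter logistic fitting.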

T1 sequence (Q13304 whole entry): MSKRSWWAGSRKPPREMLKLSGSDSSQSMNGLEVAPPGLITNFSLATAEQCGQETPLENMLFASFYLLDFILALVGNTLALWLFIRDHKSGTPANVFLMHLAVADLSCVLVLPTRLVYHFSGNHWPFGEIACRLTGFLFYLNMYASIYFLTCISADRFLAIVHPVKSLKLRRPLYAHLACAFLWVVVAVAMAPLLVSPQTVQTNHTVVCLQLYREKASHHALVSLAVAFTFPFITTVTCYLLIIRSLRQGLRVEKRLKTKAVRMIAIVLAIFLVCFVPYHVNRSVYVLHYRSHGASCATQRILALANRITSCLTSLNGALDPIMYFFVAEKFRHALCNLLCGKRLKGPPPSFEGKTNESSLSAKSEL

SMILES	Kb [1] [nM]	IC50 [2] [nM]
O=[N+]([O-])c1ccc(NS(=O)(=O)c2c[nH]c3cc(Cl)ccc23)cc1 [Compound I-39, 6-chloro-N-(4-nitrophenyl)-1H-indole-3-sulfonamide]	> 31.6	3.16 to 31.6
COc1ccc2c(S(=O)(=O)Nc3nc(OC)c(Cl)cc3F)c[nH]c2c1Cl [Compound I-356, 7-chloro-N-(5-chloro-3-fluoro-6-methoxypyridin-2-yl)-6-methoxy-1H-indole-3-sulfonamide]	3.16 to 31.6	3.16 to 31.6
O=S(=O)(Nc1cccc2nsnc12)c1c[nH]c2cc(F)ccc12 [Compound I-107, N-(2,1,3-benzothiadiazol-4-yl)-6-fluoro-1H-indole-3-sulfonamide]	3.16 to 31.6	3.16 to 31.6
O=S(=O)(Nc1cc(F)c(F)cc1F)c1c[nH]c2nc(Br)ccc12 [Compound I-95, 6-bromo-N-(2,4,5-trifluorophenyl)-1H-pyrrolo[2,3-b]pyridine-3-sulfonamide]	3.16 to 31.6	3.16 to 31.6
CS(=O)(=O)c1ccc2c(S(=O)(=O)Nc3cccc4c3OC(F)(F)O4)c[nH]c2c1 [Compound I-240, N-(2,2-difluoro-1,3-benzodioxol-4-yl)-6-methylsulfonyl-1H-indole-3-sulfonamide]	> 31.6	> 31.6
O=S(=O)(Nc1ccc(OC(F)(F)F)cc1F)c1c[nH]c2nc(Cl)ccc12 [Compound I-273, 6-chloro-N-[2-fluoro-4-(trifluoromethoxy)phenyl]-1H-pyrrolo[2,3-b]pyridine-3-sulfonamide]	3.16 to 31.6	3.16 to 31.6
O=S(=O)(Nc1cc(F)ccc1F)c1c[nH]c2nc(Br)ccc12 [Compound I-88, 6-bromo-N-(2,5-difluorophenyl)-1H-pyrrolo[2,3-b]pyridine-3-sulfonamide]	3.16 to 31.6	3.16 to 31.6
O=C1OCc2cc(F)c(NS(=O)(=O)c3c[nH]c4nc(Cl)ccc34)cc21 [Compound I-284, 6-chloro-N-(6-fluoro-3-oxo-1,3-dihydro-2-benzofuran-5-yl)-1H-pyrrolo[2,3-b]pyridine-3-sulfonamide]	> 31.6	3.16 to 31.6
N#Cc1ccc(NS(=O)(=O)c2c[nH]c3cc(Cl)c(F)cc23)c(F)c1 [Compound I-258, 6-chloro-N-(4-cyano-2-fluorophenyl)-5-fluoro-1H-indole-3-sulfonamide]	3.16 to 31.6	< 3.16
Cc1ccc2c(S(=O)(=O)Nc3ccc(Br)cc3F)c[nH]c2c1 [Compound I-173, N-(4-bromo-2-fluorophenyl)-6-methyl-1H-indole-3-sulfonamide]	3.16 to 31.6	3.16 to 31.6
O=S(=O)(Nc1cccc2nsnc12)c1c[nH]c2c1ccc1ccccc12 [Compound I-155, N-(2,1,3-benzothiadiazol-4-yl)-1H-benzo[g]indole-3-sulfonamide]	< 3.16	3.16 to 31.6
CS(=O)(=O)c1c(Cl)ccc2c(S(=O)(=O)Nc3cc(F)c(Cl)cc3F)c[nH]c12 [Compound I-261, 6-chloro-N-(4-chloro-2,5-difluorophenyl)-7-(methylsulfonyl)-1H-indole-3-sulfonamide]	3.16 to 31.6	3.16 to 31.6
COc1nc(NS(=O)(=O)c2csc3cc(Cl)ccc23)c(F)cc1CC#N [Compound I-315, 6-chloro-N-[5-(cyanomethyl)-3-fluoro-6-methoxypyridin-2-yl]-1-benzothiophene-3-sulfonamide]	< 3.16	< 3.16
COc1nc(NS(=O)(=O)c2c[nH]c3c2ccc2cccnc23)c(F)cc1Cl [Compound I-328, N-(5-chloro-3-fluoro-6-methoxypyridin-2-yl)-1H-pyrrolo[3,2-h]quinoline-3-sulfonamide]	< 3.16	< 3.16
C[S+]([O-])c1ccc2c(S(=O)(=O)Nc3ccc(C#N)cc3)c[nH]c2c1 (stereo not drawn) [Compound I-237, N-(4-cyanophenyl)-6-(methylsulfinyl)-1H-indole-3-sulfonamide]	> 31.6	> 31.6
COc1ccc2c(S(=O)(=O)Nc3cc(F)c(Cl)cc3F)c(F)[nH]c2c1 [Compound I-318, N-(4-chloro-2,5-difluorophenyl)-2-fluoro-6-methoxy-1H-indole-3-sulfonamide]	3.16 to 31.6	3.16 to 31.6
O=S(=O)(Nc1ccc(S(F)(F)(F)(F)F)cc1F)c1c[nH]c2nc(Cl)ccc12 [Compound I-295, 6-chloro-N-[2-fluoro-4-(pentafluoro-lambda-6-sulfanyl)phenyl]-1H-pyrrolo[2,3-b]pyridine-3-sulfonamide]	3.16 to 31.6	3.16 to 31.6

Results, then the molecule that gave them:

Kb [1] [nM]	IC50 [2] [nM]	SMILES
3.16 to 31.6	3.16 to 31.6	O=S(=O)(Nc1cc2c(cc1F)OC(F)(F)O2)c1c[nH]c2cc(Cl)ccc12 [Compound I-125, 6-chloro-N-(2,2,6-trifluoro-1,3-benzodioxol-5-yl)-1H-indole-3-sulfonamide]
3.16 to 31.6	3.16 to 31.6	COc1cc(NS(=O)(=O)c2c[nH]c3cc(Cl)ccc23)ccc1C#N [Compound I-124, 6-chloro-N-(4-cyano-3-methoxyphenyl)-1H-indole-3-sulfonamide]
> 31.6	> 31.6	O=S(=O)(Nc1ccc(Cl)cc1)c1c[nH]c2cc(Cl)ccc12 [Compound I-24, 6-chloro-N-(4-chlorophenyl)-1H-indole-3-sulfonamide]
3.16 to 31.6	3.16 to 31.6	[N-]=[N+]=Nc1ccc(NS(=O)(=O)c2c[nH]c3cc(Cl)ccc23)c(F)c1 [Compound I-241, N-(4-azido-2-fluorophenyl)-6-chloro-1H-indole-3-sulfonamide]
< 3.16	3.16 to 31.6	C#Cc1ccc(NS(=O)(=O)c2c[nH]c3cc(Cl)ccc23)c(F)c1 [Compound I-210, 6-chloro-N-(4-ethynyl-2-fluorophenyl)-1H-indole-3-sulfonamide]
3.16 to 31.6	< 3.16	Cc1cc(F)c(NS(=O)(=O)c2c[nH]c3cc(Cl)ccc23)nc1F [Compound I-348, 6-chloro-N-(3,6-difluoro-5-methylpyridin-2-yl)-1H-indole-3-sulfonamide]
< 3.16	< 3.16	COc1nc(NS(=O)(=O)c2c[nH]c3c(F)c(Cl)ccc23)c(F)cc1CC#N [Compound I-354, 6-chloro-N-[5-(cyanomethyl)-3-fluoro-6-methoxypyridin-2-yl]-7-fluoro-1H-indole-3-sulfonamide]
< 3.16	< 3.16	O=S(=O)(Nc1nc(F)c(OCCF)cc1F)c1c[nH]c2cc(Cl)ccc12 [Compound I-364, 6-chloro-N-[3,6-difluoro-5-(2-fluoroethoxy)pyridin-2-yl]-1H-indole-3-sulfonamide]
< 3.16	3.16 to 31.6	O=S(=O)(Nc1ccc(Cl)cc1F)c1c[nH]c2cc(Cl)ccc12 [Compound I-141, 6-chloro-N-(4-chloro-2-fluorophenyl)-1H-indole-3-sulfonamide]
< 3.16	< 3.16	N#Cc1cc(F)c(NS(=O)(=O)c2c[nH]c3cc(Br)ccc23)cc1F [Compound I-188, 6-bromo-N-(4-cyano-2,5-difluorophenyl)-1H-indole-3-sulfonamide]
< 3.16	< 3.16	O=S(=O)(Nc1ncc(Cl)cc1F)c1c[nH]c2cc(Br)ccc12 [Compound I-290, 6-Bromo-N-(5-chloro-3-fluoropyridin-2-yl)-1H-indole-3-sulfonamide]
< 3.16	< 3.16	CCOC(=O)CCc1cc(F)c(NS(=O)(=O)c2c[nH]c3cc(Cl)ccc23)nc1F [Compound I-331, ethyl 3-(6-{[(6-chloro-1H-indol-3-yl)sulfonyl]amino}-2,5-difluoropyridin-3-yl)propanoate]
3.16 to 31.6	3.16 to 31.6	O=S(=O)(Nc1ncc(F)cc1F)c1c[nH]c2cc(Cl)ccc12 [Compound I-302, 6-chloro-N-(3,5-difluoropyridin-2-yl)-1H-indole-3-sulfonamide]
3.16 to 31.6	3.16 to 31.6	CC(=O)c1ccc(NS(=O)(=O)c2c[nH]c3cc(Cl)ccc23)c(F)c1 [Compound I-219, N-(4-acetyl-2-fluorophenyl)-6-chloro-1H-indole-3-sulfonamide]
3.16 to 31.6	3.16 to 31.6	COc1cc(C#N)ccc1NS(=O)(=O)c1c[nH]c2cc(Cl)ccc12 [Compound I-126, 6-chloro-N-(4-cyano-2-methoxyphenyl)-1H-indole-3-sulfonamide]
3.16 to 31.6	3.16 to 31.6	O=S(=O)(Nc1cc(F)c(Cl)cc1F)c1c[nH]c2cc(OCC(F)(F)F)ccc12 [Compound I-300, N-(4-chloro-2,5-difluorophenyl)-6-(2,2,2-trifluoroethoxy)-1H-indole-3-sulfonamide]
< 3.16	3.16 to 31.6	O=S(=O)(Nc1cc(F)c(Cl)cc1F)c1c[nH]c2cc(Cl)ccc12 [Compound I-204, 6-chloro-N-(4-chloro-2,5-difluorophenyl)-1H-indole-3-sulfonamide]
3.16 to 31.6	3.16 to 31.6	O=S(=O)(Nc1ccc2nsnc2c1)c1c[nH]c2cc(Cl)ccc12 [Compound I-147, N-(2,1,3-benzothiadiazol-5-yl)-6-chloro-1H-indole-3-sulfonamide]
< 3.16	< 3.16	COc1ccc2c(S(=O)(=O)Nc3cc(F)c(C#N)cc3F)c[nH]c2c1 [Compound I-291, N-(4-cyano-2,5-difluorophenyl)-6-methoxy-1H-indole-3-sulfonamide]
